Laboratory results: patent US9637469B2, “Pyridine derivative” (Teijin Pharma Limited, priority 2012, dated 2017)

Each compound was assayed against T1, human URAT1 (Homo sapiens, UniProt Q96S37) (assay: Test for inhibition of uric acid transport using human URAT1-expressing cells). Conditions: HEK 293 cells expressing human URAT1; 14C-labeled uric acid 25 μM; uptake 37° C. for 5 min.
T1 construct: Full-length cDNA of human URAT1 (hURAT1)
T1 sequence (Q96S37 1-553): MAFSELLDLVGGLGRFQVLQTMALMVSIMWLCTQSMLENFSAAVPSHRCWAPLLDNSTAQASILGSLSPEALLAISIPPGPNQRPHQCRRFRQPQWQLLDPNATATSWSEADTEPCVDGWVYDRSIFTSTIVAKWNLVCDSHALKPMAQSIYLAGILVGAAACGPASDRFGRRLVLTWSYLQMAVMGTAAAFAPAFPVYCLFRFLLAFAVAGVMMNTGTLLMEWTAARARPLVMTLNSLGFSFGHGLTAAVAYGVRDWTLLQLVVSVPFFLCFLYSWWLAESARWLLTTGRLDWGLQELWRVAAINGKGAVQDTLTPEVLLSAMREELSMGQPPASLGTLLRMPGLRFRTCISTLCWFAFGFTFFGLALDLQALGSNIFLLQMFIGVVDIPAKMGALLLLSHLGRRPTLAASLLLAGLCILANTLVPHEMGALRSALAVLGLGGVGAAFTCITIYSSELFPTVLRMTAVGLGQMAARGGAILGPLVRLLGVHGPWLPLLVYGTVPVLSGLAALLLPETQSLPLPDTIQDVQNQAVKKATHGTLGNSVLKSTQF
Type: cell-based
How it was run: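 IC50 values reflect inhibition of ¹⁴C-uric acid uptake (25 μM final, 5 min, 37 °C) by compound. Cells were HEK293 stably expressing full-length human URAT1, preincubated in Na-gluconate-substituted HBSS. Radioactivity in lysates was expressed relative to DMSO control as 100%.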
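Note: three stars up to 0.2 µM two stars 0.2-2 µM one star 2-20 µM.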

SMILES	Inhibitory Activity (IC50 of uric acid transport inhibition)
Cc1nc(Oc2cnccc2Br)n(Cc2cc(Cl)ccc2Cl)c1C(=O)O [Compound A258, 2-((4-bromopyridin-3-yl)oxy)-1-(2,5-dichlorobenzyl)-4-methyl-1H-imidazole-5-carboxylic acid]	* * *
CC(C)(Sc1cnc(-c2cncc(Cl)c2)n1Cc1cc(Cl)ccc1Cl)C(=O)O [Compound A262, 2-((2-(5-chloropyridin-3-yl)-1-(2,5-dichlorobenzyl)-1H-imidazol-5-yl)thio)-2-methylpropanoic acid]	* *
O=C(O)C1(Sc2cnc(-c3cncc(Cl)c3)n2Cc2cc(Cl)ccc2Cl)CCC1 [Compound A263, 1-((2-(5-chloropyridin-3-yl)-1-(2,5-dichlorobenzyl)-1H-imidazol-5-yl)thio)cyclobutanecarboxylic acid]	* *
CC(C)(Sc1ncc(-c2cncc(Cl)c2)n1Cc1cc(Cl)ccc1Cl)C(=O)O [Compound A266, 2-((5-(5-chloropyridin-3-yl)-1-(2,5-dichlorobenzyl)-1H-imidazol-2-yl)thio)-2-methylpropanoic acid]	* *
Cc1ccc(Cn2c(C(=O)O)ccc2-c2cccnc2)c2ccccc12 [Compound B2, 1-((4-methylnaphthalen-1-yl)methyl)-2-(pyridin-3-yl)-1H-pyrrole-5-carboxylic acid]	* * *
O=C(O)c1ccc(-c2cccnc2)n1Cc1csc2cccc(Br)c12 [Compound B3, 1-((4-bromobenzo[b]thiophen-3-yl)methyl)-2-(pyridin-3-yl)-1H-pyrrole-5-carboxylic acid]	* * *
Cc1ccc2ccccc2c1Cn1c(C(=O)O)ccc1-c1cccnc1 [Compound B4, 1-((2-methylnaphthalen-1-yl)methyl)-2-(pyridin-3-yl)-1H-pyrrole-5-carboxylic acid]	* *
O=C(O)c1ccc(-c2cccnc2)n1Cc1cccc2cccc(Br)c12 [Compound B6, 1-((8-bromonaphthalen-1-yl)methyl)-2-(pyridin-3-yl)-1H-pyrrole-5-carboxylic acid]	* * *
Cc1cccc2scc(Cn3c(C(=O)O)ccc3-c3cccnc3)c12 [Compound B7, 1-((4-methylbenzo[b]thiophen-3-yl)methyl)-2-(pyridin-3-yl)-1H-pyrrole-5-carboxylic acid]	* * *
O=C(O)c1ccc(-c2cccnc2)n1Cc1csc2ccccc12 [Compound B8, 1-(benzo[b]thiophen-3-ylmethyl)-2-(pyridin-3-yl)-1H-pyrrole-5-carboxylic acid]	* * *
O=C(O)c1ccc(-c2cccnc2)n1Cc1csc2cccc(C(F)(F)F)c12 [Compound B9, 2-(pyridin-3-yl)-1-((4-(trifluoromethyl)benzo[b]thiophen-3-yl)methyl)-1H-pyrrole-5-carboxylic acid]	* * *
O=C(O)c1ccc(-c2cccnc2)n1Cc1csc2cccc(Cl)c12 [Compound B10, 1-((4-chlorobenzo[b]thiophen-3-yl)methyl)-2-(pyridin-3-yl)-1H-pyrrole-5-carboxylic acid]	* * *
Cc1ccc(C)c(Cn2c(C(=O)O)ccc2-c2cccnc2)c1 [Compound B12, 1-(2,5-dimethylbenzyl)-2-(pyridin-3-yl)-1H-pyrrole-5-carboxylic acid]	* * *
Cc1cncc(-c2ccc(C(=O)O)n2Cc2cc(Cl)ccc2Cl)c1 [Compound B13, 1-(2,5-dichlorobenzyl)-2-(5-methylpyridin-3-yl)-1H-pyrrole-5-carboxylic acid]	* * *
O=C(O)c1ccc(-c2cncc(F)c2)n1Cc1cc(Cl)ccc1Cl [Compound B14, 1-(2,5-dichlorobenzyl)-2-(5-fluoropyridin-3-yl)-1H-pyrrole-5-carboxylic acid]	* * *
Cc1cncc(-c2ccc(C(=O)O)n2Cc2csc3cccc(Cl)c23)c1 [Compound B15, 1-((4-chlorobenzo[b]thiophen-3-yl)methyl)-2-(5-methylpyridin-3-yl)-1H-pyrrole-5-carboxylic acid]	* * *
O=C(O)c1ccc(-c2cncc(F)c2)n1Cc1csc2cccc(Cl)c12 [Compound B16, 1-((4-chlorobenzo[b]thiophen-3-yl)methyl)-2-(5-fluoropyridin-3-yl)-1H-pyrrole-5-carboxylic acid]	* * *
O=C(O)c1ccc(-c2cncc(Cl)c2)n1Cc1cc(Cl)ccc1Cl [Compound B17, 2-(5-chloropyridin-3-yl)-1-(2,5-dichlorobenzyl)-1H-pyrrole-5-carboxylic acid]	* * *
O=C(O)c1ccc(-c2cncc(Cl)c2)n1Cc1csc2cccc(Cl)c12 [Compound B18, 1-((4-chlorobenzo[b]thiophen-3-yl)methyl)-2-(5-chloropyridin-3-yl)-1H-pyrrole-5-carboxylic acid]	* * *
O=C(O)c1ccc(-c2cccnc2)n1Cc1cccc2cccnc12 [Compound B19, 2-(pyridin-3-yl)-1-(quinolin-8-ylmethyl)-1H-pyrrole-5-carboxylic acid]	* *
O=C(O)c1ccc(-c2cccnc2)n1Cc1cccc2ccsc12 [Compound B20, 1-(benzo[b]thiophen-7-ylmethyl)-2-(pyridin-3-yl)-1H-pyrrole-5-carboxylic acid]	* * *
Cc1cncc(-c2ccc(C(=O)O)n2Cc2cccc3ccsc23)c1 [Compound B21, 1-(benzo[b]thiophen-7-ylmethyl)-2-(5-methylpyridin-3-yl)-1H-pyrrole-5-carboxylic acid]	* * *
O=C(O)c1ccc(-c2cncc(F)c2)n1Cc1cccc2ccsc12 [Compound B22, 1-(benzo[b]thiophen-7-ylmethyl)-2-(5-fluoropyridin-3-yl)-1H-pyrrole-5-carboxylic acid]	* * *
O=C(O)c1ccc(-c2cncc(Cl)c2)n1Cc1cccc2ccsc12 [Compound B23, 1-(benzo[b]thiophen-7-ylmethyl)-2-(5-chloropyridin-3-yl)-1H-pyrrole-5-carboxylic acid]	* * *
CS(=O)(=O)NC(=O)c1ccc(-c2cccnc2)n1Cc1cccc2ccccc12 [Compound B24, N-(methylsulfonyl)-1-(naphthalen-1-ylmethyl)-2-(pyridin-3-yl)-1H-pyrrole-5-carboxamide]	* * *

Same assay, conditions: HEK 293 cells expressing human URAT1; 14C-labeled uric acid 25 μM; uptake 37° C. for 5 min; read-out: Inhibitory Activity (IC50 of uric acid transport inhibition)

SMILES	IC50 [µM]
O=C(O)/C=C/c1cnc(-c2cccnc2)n1Cc1cccc2ccccc12 [Compound A259]	2 to 20
O=C(O)/C=C/c1cnc(-c2cccnc2)n1Cc1cc(Cl)ccc1Cl [Compound A260]	2 to 20
CC(C)(Sc1cnc(-c2cccnc2)n1Cc1cc(Cl)ccc1Cl)C(=O)O [Compound A261]	2 to 20
CC(C)(Sc1ncc(-c2cccnc2)n1Cc1cc(Cl)ccc1Cl)C(=O)O [Compound A264]	2 to 20
CC(C)(Sc1ncc(-c2cncc(F)c2)n1Cc1cc(Cl)ccc1Cl)C(=O)O [Compound A265]	2 to 20
